From ChEMBL document CHEMBL1201862, “PubChem BioAssay data set” (2004) come the findings set out here.

Among the test systems are CAKI-1; HCC 2998; HL-60; HOP-92; HT-29; LOX IMVI; LXFL 529; M14; NCI-H226; SF-295; SK-MEL-5; SK-OV-3; SNB-75; UACC-62; ACHN; MCF7; MDA-N; PC-3; SK-MEL-28.
Assay in all cases: DTP human tumour cell line panel, 48 h

What is called GI50 is the concentration that inhibits growth by half.

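1) Cells in 96-well plates. 2) Compound, 48 h, 5 concentrations. 3) Linear interpolation between surrounding doses. 4) Unreached endpoint = highest concentration. GI50: concentration for 50% inhibition of growth.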 Activity calls are given as the source filed them. No stated cut-off is given here; in the data, active = GI50 up to about 1.1 µM and inactive = higher.

Regarding `N#CC(C#N)=C(C(C#N)C#N)C(C#N)C#N`, the GI50 in the test with CAKI-1, in the test on HCC 2998, in the test on HL-60, in the test on HOP-92, with HT-29 and in the test with LOX IMVI was > 100 µM (inactive) each time. In addition, the GI50 in the test with LXFL 529, in the test with M14, with NCI-H226, with SF-295, in the test with SK-MEL-5 and in the test on SK-OV-3 was > 100 µM (inactive) each time. Also, the GI50 in the test with SNB-75 and in the test on UACC-62 was > 100 µM (inactive) throughout.

Regarding `ClC(Cl)=C1C(=C(Cl)Cl)C(Cl)(Cl)C1(Cl)Cl`, the GI50 is 2.48 µM (inactive) with ACHN; 2.89 µM (inactive) in the test on CAKI-1; 4.78 µM (inactive) in the test with HCC 2998; 0.625 µM (active) in the test on HL-60; 1.24 µM (inactive) with HOP-92; 2.02 µM (inactive) in the test with HT-29. Also, the GI50 in the test with LOX IMVI was 0.212 µM (active); in the test with LXFL 529, 0.938 µM (active); in the test on M14, 1.06 µM (active); in the test on MCF7, 4.47 µM (inactive); in the test with MDA-N it was 1.37 µM (inactive); in the test on PC-3 it was 2.31 µM (inactive). Besides, the GI50 in the test with SF-295 is 2.48 µM (inactive); in the test with SK-MEL-28 it was 1.44 µM (inactive); in the test with SK-MEL-5, 2.82 µM (inactive); with SK-OV-3 it was 14.9 µM (inactive); with SNB-75 it was 3.18 µM (inactive); with UACC-62 it was 1.95 µM (inactive).

In the case of `CC1=CCCC(OC(N)=O)C1` (stereo not given), the GI50 in the test on ACHN was > 100 µM (inactive); in the test with CAKI-1, > 100 µM (inactive); in the test with HCC 2998, > 100 µM (inactive); in the test with HL-60, > 100 µM (inactive); with HOP-92, 46.2 µM (inactive); in the test on HT-29, > 100 µM (inactive). Also, the GI50 in the test on LOX IMVI, in the test with LXFL 529, in the test with M14, in the test on SF-295, with SK-MEL-5 and in the test with SK-OV-3 was > 100 µM (inactive) throughout. The GI50 with SNB-75 is 97.7 µM (inactive); in the test on UACC-62 it was > 100 µM (inactive).

`CC(C)(C)C(=O)Nc1cccc2oc(-c3ccccc3)cc12`: the GI50 in the test on ACHN was > 100 µM (inactive); with CAKI-1, > 100 µM (inactive); in the test with HCC 2998, > 100 µM (inactive); in the test with HL-60, 66.2 µM (inactive); in the test with HOP-92 it was 56.2 µM (inactive); in the test with HT-29 it was > 100 µM (inactive). The GI50 with LXFL 529 is 36.3 µM (inactive); in the test on M14, > 100 µM (inactive); in the test on SF-295 it was > 100 µM (inactive); in the test on SK-MEL-28 it was > 100 µM (inactive); with SK-OV-3, > 100 µM (inactive); in the test with SNB-75, 85.1 µM (inactive). In the test on UACC-62, the GI50 is > 100 µM (inactive).

On to `NC(=S)N/N=C1/CN(c2ccc(Cl)c(Cl)c2)CC(=O)C1c1nc2ccccc2s1` (stereo not given), for which the GI50 in the test on ACHN is 93.3 µM (inactive); in the test on CAKI-1, > 100 µM (inactive); with HCC 2998 it was > 100 µM (inactive); with HL-60, 68.9 µM (inactive); with HOP-92, > 100 µM (inactive); in the test with HT-29, 81.5 µM (inactive). The GI50 in the test on LOX IMVI was 59.6 µM (inactive); in the test on LXFL 529 it was 37.8 µM (inactive); in the test with M14 it was > 100 µM (inactive); in the test on NCI-H226, 78.7 µM (inactive); in the test on SF-295, 46.9 µM (inactive); in the test on SK-MEL-28, 92.3 µM (inactive). Further, the GI50 in the test with SK-MEL-5 was > 100 µM (inactive); in the test with SK-OV-3 it was > 100 µM (inactive); in the test on SNB-75 it was 28.5 µM (inactive); with UACC-62 it was 55.7 µM (inactive).

Regarding `O=S1(=O)c2cc(S(=O)(=O)n3ccnc3)ccc2NC2=NCCCN21`, the GI50 in the test with ACHN is 34.3 µM (inactive); with CAKI-1, 38.8 µM (inactive); with HCC 2998, 23 µM (inactive); with HL-60, 15.5 µM (inactive); in the test with HOP-92 it was > 100 µM (inactive); with HT-29, 20.3 µM (inactive). Further, the GI50 is 38.5 µM (inactive) in the test with LOX IMVI; 31.5 µM (inactive) with LXFL 529; 26.7 µM (inactive) in the test on M14; 19.8 µM (inactive) with NCI-H226; 29.4 µM (inactive) in the test with SF-295; > 100 µM (inactive) in the test with SK-MEL-28. Also, the GI50 with SK-MEL-5 was 20.2 µM (inactive); with SK-OV-3, 20.3 µM (inactive); with SNB-75 it was 26.7 µM (inactive); with UACC-62, 48.5 µM (inactive).

For the compound `O=S(=O)(c1ccccc1)N1N=C2c3ccccc3CCC[C@H]2C1c1ccccc1` (stereo not given in full), the GI50 with ACHN, with CAKI-1, in the test on HCC 2998, in the test on HL-60, in the test with HOP-92 and with HT-29 was > 100 µM (inactive) in each case. The GI50 with LOX IMVI was > 87.9 µM (inactive); in the test with LXFL 529 it was > 100 µM (inactive); in the test on M14 it was > 100 µM (inactive); in the test on NCI-H226, > 66.1 µM (inactive); in the test with SF-295 it was > 100 µM (inactive); with SK-MEL-28, > 100 µM (inactive). The GI50 in the test on SK-MEL-5 was > 100 µM (inactive); with SK-OV-3 it was 34.2 µM (inactive); with SNB-75 it was > 74.6 µM (inactive); with UACC-62, > 87.1 µM (inactive).

In the case of `CCOC(=O)C1C2CCC(C2)C1(CCl)C(=O)OCC` (stereo not given), the GI50 in the test on ACHN was > 100 µM (inactive); in the test on CAKI-1 it was > 100 µM (inactive); with HCC 2998 it was > 100 µM (inactive); in the test with HL-60, > 100 µM (inactive); with HOP-92, 36.6 µM (inactive); in the test with HT-29, > 100 µM (inactive). Further, the GI50 in the test with LOX IMVI, with LXFL 529, in the test with M14, with NCI-H226, in the test on SF-295 and with SK-MEL-28 was > 100 µM (inactive) throughout. The GI50 with SK-MEL-5, with SK-OV-3 and in the test with UACC-62 was > 100 µM (inactive) throughout.

Consider `Cc1nc2cc(Nc3ccccc3C(=O)O)ccc2s1`, for which the GI50 in the test with ACHN, in the test with CAKI-1, in the test with HCC 2998, in the test with HL-60, in the test with HOP-92 and in the test with HT-29 was > 100 µM (inactive) each time. For the same compound, the GI50 with LOX IMVI, with LXFL 529, with M14, with SF-295, in the test with SK-MEL-28 and in the test with SK-MEL-5 was > 100 µM (inactive) throughout. The GI50 in the test on SK-OV-3, with SNB-75 and in the test with UACC-62 was > 100 µM (inactive) each time.

`Oc1ccc(O)c(-n2cccn2)c1-n1cccn1`: the GI50 was > 100 µM (inactive) in the test with ACHN; > 100 µM (inactive) with CAKI-1; > 100 µM (inactive) in the test on HCC 2998; > 10 µM (inactive) in the test on HL-60; > 100 µM (inactive) in the test on HOP-92; > 100 µM (inactive) with HT-29. Moreover, the GI50 in the test on LOX IMVI is > 100 µM (inactive); in the test on LXFL 529, > 100 µM (inactive); with M14, > 100 µM (inactive); with SF-295, 37.2 µM (inactive); with SK-MEL-28 it was > 100 µM (inactive); in the test with SK-MEL-5 it was > 100 µM (inactive). For the same compound, the GI50 with SK-OV-3 is > 100 µM (inactive); in the test on SNB-75, > 100 µM (inactive); with UACC-62 it was 97.7 µM (inactive).

For the compound `COC1=CC(=O)C(Br)=CC1=O`, the GI50 in the test on CAKI-1 is 18.4 µM (inactive); in the test with HCC 2998, 36.3 µM (inactive); in the test with HL-60 it was 5.32 µM (inactive); in the test on HOP-92, 15.9 µM (inactive); with HT-29, 19.2 µM (inactive); in the test on LOX IMVI it was 18.2 µM (inactive). The GI50 is 17.2 µM (inactive) in the test with LXFL 529; 19 µM (inactive) in the test with M14; 19.5 µM (inactive) in the test on SK-MEL-28; 17.9 µM (inactive) in the test on SK-MEL-5; > 100 µM (inactive) with SK-OV-3; 15.2 µM (inactive) with SNB-75. Besides, the GI50 in the test with UACC-62 is 17.6 µM (inactive).

For the compound `CCOC(=O)C[C@@]12CCCN[C@]1(C)CCc1ccccc12`, the GI50 in the test on ACHN was > 100 µM (inactive); in the test on CAKI-1, > 100 µM (inactive); in the test on HCC 2998, > 100 µM (inactive); in the test on HL-60, > 100 µM (inactive); in the test on HOP-92, 97.1 µM (inactive); with HT-29, > 100 µM (inactive). Also, the GI50 in the test with LOX IMVI, in the test on LXFL 529, in the test on M14, with SF-295, with SK-MEL-28 and in the test on SK-MEL-5 was > 100 µM (inactive) throughout. Also, the GI50 with SK-OV-3, in the test with SNB-75 and with UACC-62 was > 100 µM (inactive) in each case.

Consider `CC1=C(C#N)C(=O)CC(c2ccc(Cl)cc2)N(C)N1` (stereo not given), for which the GI50 in the test on ACHN, in the test with CAKI-1, in the test on HCC 2998, in the test with HL-60, in the test on HOP-92 and in the test on HT-29 was > 100 µM (inactive) in each case. Also, the GI50 with LOX IMVI, in the test with LXFL 529, in the test with M14, in the test on NCI-H226, in the test on SF-295 and in the test on SK-MEL-28 was > 100 µM (inactive) each time. Also, the GI50 in the test on SK-MEL-5, with SK-OV-3 and with SNB-75 was > 100 µM (inactive) in each case.
